The text below walks through data of patent publication US10745384B2, “Indazole derivatives as αv integrin antagonists” (BRISTOL-MYERS SQUIBB COMPANY, priority 2016, dated 2020).

Counter-ions that a name gives are not always drawn.

This assay deals with T1, human αVβ6 (Homo sapiens, UniProt P06756+P18564).
T1 construct: purchased R & D systems 3817-AV
T1 sequence (P06756 31-992 limits assumed): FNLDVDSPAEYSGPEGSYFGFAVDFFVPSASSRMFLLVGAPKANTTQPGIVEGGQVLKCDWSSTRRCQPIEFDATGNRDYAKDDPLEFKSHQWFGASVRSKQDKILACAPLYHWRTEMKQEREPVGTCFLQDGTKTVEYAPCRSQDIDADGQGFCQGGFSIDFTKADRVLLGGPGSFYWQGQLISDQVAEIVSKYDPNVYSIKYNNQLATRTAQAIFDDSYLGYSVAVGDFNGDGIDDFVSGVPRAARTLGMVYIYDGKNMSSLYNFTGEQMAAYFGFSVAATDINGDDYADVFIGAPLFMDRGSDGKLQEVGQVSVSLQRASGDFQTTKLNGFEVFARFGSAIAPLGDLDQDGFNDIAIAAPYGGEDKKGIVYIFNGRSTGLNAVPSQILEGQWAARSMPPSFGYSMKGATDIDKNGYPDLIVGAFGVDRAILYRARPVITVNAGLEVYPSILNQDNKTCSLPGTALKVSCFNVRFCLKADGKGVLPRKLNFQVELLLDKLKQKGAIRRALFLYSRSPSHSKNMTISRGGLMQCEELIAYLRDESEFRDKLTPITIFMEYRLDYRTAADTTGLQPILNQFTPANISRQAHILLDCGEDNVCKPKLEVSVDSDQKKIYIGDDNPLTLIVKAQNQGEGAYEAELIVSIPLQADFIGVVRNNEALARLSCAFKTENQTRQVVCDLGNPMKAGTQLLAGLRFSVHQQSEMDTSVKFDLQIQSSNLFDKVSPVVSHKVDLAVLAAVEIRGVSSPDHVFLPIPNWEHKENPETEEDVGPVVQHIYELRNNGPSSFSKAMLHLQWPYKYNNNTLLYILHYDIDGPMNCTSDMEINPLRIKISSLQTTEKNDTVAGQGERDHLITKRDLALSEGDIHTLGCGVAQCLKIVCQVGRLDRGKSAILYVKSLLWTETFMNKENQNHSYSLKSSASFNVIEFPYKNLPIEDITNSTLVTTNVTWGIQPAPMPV
T1 sequence (P18564 22-707 limits assumed): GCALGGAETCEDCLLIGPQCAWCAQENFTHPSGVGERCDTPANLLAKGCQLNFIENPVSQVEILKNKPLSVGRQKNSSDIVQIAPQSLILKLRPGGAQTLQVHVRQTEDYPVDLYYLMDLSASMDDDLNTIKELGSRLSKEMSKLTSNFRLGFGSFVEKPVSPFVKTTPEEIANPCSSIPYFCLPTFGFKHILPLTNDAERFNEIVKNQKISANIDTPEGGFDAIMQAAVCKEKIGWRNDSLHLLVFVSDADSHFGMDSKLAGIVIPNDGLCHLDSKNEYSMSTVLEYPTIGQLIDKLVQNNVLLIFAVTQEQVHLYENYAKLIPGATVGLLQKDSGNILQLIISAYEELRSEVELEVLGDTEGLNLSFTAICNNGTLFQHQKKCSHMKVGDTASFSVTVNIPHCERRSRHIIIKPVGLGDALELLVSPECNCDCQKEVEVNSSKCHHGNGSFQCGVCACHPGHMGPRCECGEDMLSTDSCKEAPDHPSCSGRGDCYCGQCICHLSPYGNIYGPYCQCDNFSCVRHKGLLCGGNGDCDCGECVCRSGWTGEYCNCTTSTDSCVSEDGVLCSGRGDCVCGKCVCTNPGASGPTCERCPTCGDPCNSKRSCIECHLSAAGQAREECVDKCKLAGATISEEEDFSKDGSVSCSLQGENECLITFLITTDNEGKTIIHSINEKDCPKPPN
Nature of the assay: human αVβ6 HTRF binding assay. The following applies: recombinant human αVβ6 integrin, FITC-conjugated fibronectin. In outline: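 HTRF binding in 20 mM Tris pH 7.4 with 1 mM MgCl2, 1 mM MnCl2, 0.01% Tween 20 and 0.01% BSA. For αVβ6, biotinylated integrin (1.25 nM) and FITC-fibronectin (5 nM) were incubated 1 h at RT, then streptavidin-terbium (0.625 nM) was added overnight in the dark. An SPA-based fibronectin binding format was an alternative.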
In general terms: TR-FRET usually uses a lanthanide donor and a delayed reading to cut background.
As usually defined, the IC50 is the concentration needed to halve the response being measured. As for `Cn1cnc2cc(C(CC(=O)O)n3ncc4cc(OCCc5ccc6c(n5)NCCC6)ccc43)cnc21` (stereo not shown) [Example 126, 3-(3-Methyl-3H-imidazo[4,5-b]pyridin-6-yl)-3-(5-(2-(5,6,7,8-tetrahydro-1,8-naphthyridin-2-yl)ethoxy)-1H-indazol-1-yl)propanoic acid, 2 TFA], the half-inhibitory concentration (IC50) amounted to 21 nM.

Regarding `O=C(O)CC(c1cncc(N2CCCC2)c1)n1ncc2cc(OCCc3ccc4c(n3)NCCC4)ccc21` (stereo not shown) [Example 127, 3-(5-(Pyrrolidin-1-yl)pyridin-3-yl)-3-(5-(2-(5,6,7,8-tetrahydro-1,8-naphthyridin-2-yl)ethoxy)-1H-indazol-1-yl)propanoic acid, 3 TFA], the IC50 was determined as 6.2 nM.

`O=C(O)C[C@H](c1cnc2nccnc2c1)n1ncc2cc(OCCc3ccc4c(n3)NCCC4)ccc21` [Example 128, (R)-3-(Pyrido[2,3-b]pyrazin-7-yl)-3-(5-(2-(5,6,7,8-tetrahydro-1,8-naphthyridin-2-yl)ethoxy)-1H-indazol-1-yl)propanoic acid]: the 50% inhibitory concentration (IC50) turned out to be 25 nM. Take `O=C(O)C[C@@H](c1cnc2nccnc2c1)n1ncc2cc(OCCc3ccc4c(n3)NCCC4)ccc21` [Example 129, (S)-3-(Pyrido[2,3-b]pyrazin-7-yl)-3-(5-(2-(5,6,7,8-tetrahydro-1,8-naphthyridin-2-yl)ethoxy)-1H-indazol-1-yl)propanoic acid]: the IC50 amounted to 480 nM. Then `O=C(O)CC(c1ccn2cnnc2c1)n1ncc2cc(OCCc3ccc4c(n3)NCCC4)ccc21` (stereo not shown) [Example 130, 3-([1,2,4]Triazolo[4,3-a]pyridin-7-yl)-3-(5-(2-(5,6,7,8-tetrahydro-1,8-naphthyridin-2-yl)ethoxy)-1H-indazol-1-yl)propanoic acid], with 57 nM; and `NCc1cncc(C(CC(=O)O)n2ncc3cc(OCCc4ccc5c(n4)NCCC5)ccc32)c1` (stereo not shown) [Example 131, 3-(5-(Aminomethyl)pyridin-3-yl)-3-(5-(2-(5,6,7,8-tetrahydro-1,8-naphthyridin-2-yl)ethoxy)-1H-indazol-1-yl)propanoic acid], with 30 nM; and `O=C(O)CC(c1cnc2c(c1)OCO2)n1ncc2cc(OCCc3ccc4c(n3)NCCC4)ccc21` (stereo not shown) [Example 132, 3-([1,3]Dioxolo[4,5-b]pyridin-6-yl)-3-(5-(2-(5,6,7,8-tetrahydro-1,8-naphthyridin-2-yl)ethoxy)-1H-indazol-1-yl)propanoic acid], with 22 nM. In the case of `COc1ncc(C(CC(=O)O)n2ncc3cc(OCCc4ccc5c(n4)NCCC5)ccc32)cc1C1OCCO1` (stereo not shown) [Example 133, 3-(5-(1,3-Dioxolan-2-yl)-6-methoxypyridin-3-yl)-3-(5-(2-(5,6,7,8-tetrahydro-1,8-naphthyridin-2-yl)ethoxy)-1H-indazol-1-yl)propanoic acid], the IC50 was 400 nM. Take `O=C(O)CC(c1cccc(-n2cccn2)n1)n1ncc2cc(OCCc3ccc4c(n3)NCCC4)ccc21` (stereo not shown) [Example 134, 3-(6-(1H-Pyrazol-1-yl)pyridin-2-yl)-3-(5-(2-(5,6,7,8-tetrahydro-1,8-naphthyridin-2-yl)ethoxy)-1H-indazol-1-yl)propanoic acid]: the IC50 was 17 nM. For the molecule `O=C(O)CC(c1cnn(-c2ccncc2)c1)n1ncc2cc(OCCc3ccc4c(n3)NCCC4)ccc21` (stereo not shown) [Example 135, 3-(1-(Pyridin-4-yl)-1H-pyrazol-4-yl)-3-(5-(2-(5,6,7,8-tetrahydro-1,8-naphthyridin-2-yl)ethoxy)-1H-indazol-1-yl)propanoic acid], the half-maximal inhibitory concentration (IC50) is 3.8 nM. For `Cn1cc2ncc(C(CC(=O)O)n3ncc4cc(OCCc5ccc6c(n5)NCCC6)ccc43)cc2n1` (stereo not shown) [Example 136, 3-(2-Methyl-2H-pyrazolo[4,3-b]pyridin-6-yl)-3-(5-(2-(5,6,7,8-tetrahydro-1,8-naphthyridin-2-yl)ethoxy)-1H-indazol-1-yl)propanoic acid], the concentration for half-maximal inhibition (IC50) came out at 41 nM.

For the molecule `Cn1ncc2ncc(C(CC(=O)O)n3ncc4cc(OCCc5ccc6c(n5)NCCC6)ccc43)cc21` (stereo not shown) [Example 137, 3-(1-Methyl-1H-pyrazolo[4,3-b]pyridin-6-yl)-3-(5-(2-(5,6,7,8-tetrahydro-1,8-naphthyridin-2-yl)ethoxy)-1H-indazol-1-yl)propanoic acid], the concentration for half-maximal inhibition (IC50) was 7 nM. To `O=C(O)C[C@H](c1cncc(C2OCCO2)c1)n1ncc2cc(OCCc3ccc4c(n3)NCCC4)ccc21` [Example 138, (R)-3-(5-(1,3-dioxolan-2-yl)pyridin-3-yl)-3-(5-(2-(5,6,7,8-tetrahydro-1,8-naphthyridin-2-yl)ethoxy)-1H-indazol-1-yl)propanoic acid] belongs 43 nM; to `O=C(O)C[C@@H](c1cncc(C2OCCO2)c1)n1ncc2cc(OCCc3ccc4c(n3)NCCC4)ccc21` [Example 139, (S)-3-(5-(1,3-dioxolan-2-yl)pyridin-3-yl)-3-(5-(2-(5,6,7,8-tetrahydro-1,8-naphthyridin-2-yl)ethoxy)-1H-indazol-1-yl)propanoic acid], 4.7 nM; to `Cn1cnc2ncc(C(CC(=O)O)n3ncc4cc(OCCc5ccc6c(n5)NCCC6)ccc43)cc21` (stereo not shown) [Example 140, 3-(1-methyl-1H-imidazo[4,5-b]pyridin-6-yl)-3-(5-(2-(5,6,7,8-tetrahydro-1,8-naphthyridin-2-yl)ethoxy)-1H-indazol-1-yl)propanoic acid], 5.7 nM. On to `O=C(O)CC(c1cncc(-c2ccn[nH]2)c1)n1ncc2cc(OCCc3ccc4c(n3)NCCC4)ccc21` (stereo not shown) [Example 141, 3-(5-(1H-pyrazol-5-yl)pyridin-3-yl)-3-(5-(2-(5,6,7,8-tetrahydro-1,8-naphthyridin-2-yl)ethoxy)-1H-indazol-1-yl)propanoic acid], for which the half-maximal inhibitory concentration (IC50) amounted to 8.2 nM. Take `O=C(O)CC(c1cncc(N2CCOCC2)n1)n1ncc2cc(OCCc3ccc4c(n3)NCCC4)ccc21` (stereo not shown) [Example 142, 3-(6-morpholinopyrazin-2-yl)-3-(5-(2-(5,6,7,8-tetrahydro-1,8-naphthyridin-2-yl)ethoxy)-1H-indazol-1-yl)propanoic acid]: the 50% inhibitory concentration (IC50) is 36 nM. With `Cn1cc(-c2cncc(C(CC(=O)O)n3ncc4cc(OCCc5ccc6c(n5)NCCC6)ccc43)c2)cn1` (stereo not shown) [Example 143, 3-(5-(1-methyl-1H-pyrazol-4-yl)pyridin-3-yl)-3-(5-(2-(5,6,7,8-tetrahydro-1,8-naphthyridin-2-yl)ethoxy)-1H-indazol-1-yl)propanoic acid], the concentration for half-maximal inhibition (IC50) amounted to 9.8 nM.

`CC(C)(O)c1cncc(C(CC(=O)O)n2ncc3cc(OCCc4ccc5c(n4)NCCC5)ccc32)c1` (stereo not shown) [Example 144, 3-(5-(2-hydroxypropan-2-yl)pyridin-3-yl)-3-(5-(2-(5,6,7,8-tetrahydro-1,8-naphthyridin-2-yl)ethoxy)-1H-indazol-1-yl)propanoic acid]: the 50% inhibitory concentration (IC50) came to 5 nM.

As to `CC(C)(O)c1cncc([C@@H](CC(=O)O)n2ncc3cc(OCCc4ccc5c(n4)NCCC5)ccc32)c1` [Example 145, (R)-3-(5-(2-hydroxypropan-2-yl)pyridin-3-yl)-3-(5-(2-(5,6,7,8-tetrahydro-1,8-naphthyridin-2-yl)ethoxy)-1H-indazol-1-yl)propanoic acid], the IC50 amounted to 1900 nM. Turning to `CC(C)(O)c1cncc([C@H](CC(=O)O)n2ncc3cc(OCCc4ccc5c(n4)NCCC5)ccc32)c1` [Example 146, (S)-3-(5-(2-hydroxypropan-2-yl)pyridin-3-yl)-3-(5-(2-(5,6,7,8-tetrahydro-1,8-naphthyridin-2-yl)ethoxy)-1H-indazol-1-yl)propanoic acid], the IC50 was determined as 5.2 nM. Turning to `COc1ncc([C@@H](CC(=O)O)n2ncc3cc(OCCc4ccc5c(n4)NCCC5)ccc32)cn1` [Example 147, (R)-3-(2-methoxypyrimidin-5-yl)-3-(5-(2-(5,6,7,8-tetrahydro-1,8-naphthyridin-2-yl)ethoxy)-1H-indazol-1-yl)propanoic acid], the IC50 was 620 nM. As to `COc1ncc([C@H](CC(=O)O)n2ncc3cc(OCCc4ccc5c(n4)NCCC5)ccc32)cn1` [Example 148, (S)-3-(2-methoxypyrimidin-5-yl)-3-(5-(2-(5,6,7,8-tetrahydro-1,8-naphthyridin-2-yl)ethoxy)-1H-indazol-1-yl)propanoic acid], the IC50 is 18 nM. To `COc1cncc(C(CC(=O)O)n2ncc3cc(OCCc4ccc5c(n4)NCCC5)ccc32)n1` (stereo not shown) [Example 149, 3-(6-methoxypyrazin-2-yl)-3-(5-(2-(5,6,7,8-tetrahydro-1,8-naphthyridin-2-yl)ethoxy)-1H-indazol-1-yl)propanoic acid] belongs 2300 nM; to `O=C(O)C[C@H](c1cncc(N2CCCC2=O)c1)n1ncc2cc(OCCc3ccc4c(n3)NCCC4)ccc21` [Example 150, (R)-3-(5-(2-oxopyrrolidin-1-yl)pyridin-3-yl)-3-(5-(2-(5,6,7,8-tetrahydro-1,8-naphthyridin-2-yl)ethoxy)-1H-indazol-1-yl)propanoic acid], 110 nM; to `O=C(O)C[C@@H](c1cncc(N2CCCC2=O)c1)n1ncc2cc(OCCc3ccc4c(n3)NCCC4)ccc21` [Example 151, (5)-3-(5-(2-oxopyrrolidin-1-yl)pyridin-3-yl)-3-(5-(2-(5,6,7,8-tetrahydro-1,8-naphthyridin-2-yl)ethoxy)-1H-indazol-1-yl)propanoic acid], 1 nM. For the molecule `O=C(O)CC(c1cncc(C(=O)N2CCOCC2)c1)n1ncc2cc(OCCc3ccc4c(n3)NCCC4)ccc21` (stereo not shown) [Example 152, 3-(5-(morpholine-4-carbonyl)pyridin-3-yl)-3-(5-(2-(5,6,7,8-tetrahydro-1,8-naphthyridin-2-yl)ethoxy)-1H-indazol-1-yl)propanoic acid], the IC50 came out at 22 nM.

For the molecule `CN(C)C(=O)c1cncc(C(CC(=O)O)n2ncc3cc(OCCc4ccc5c(n4)NCCC5)ccc32)c1` (stereo not shown) [Example 153, 3-(5-(dimethylcarbamoyl)pyridin-3-yl)-3-(5-(2-(5,6,7,8-tetrahydro-1,8-naphthyridin-2-yl)ethoxy)-1H-indazol-1-yl)propanoic acid], the IC50 amounted to 17 nM.
